Among the data in ChEMBL document CHEMBL1821670, “Synthesis and in vitro biological evaluation of carbonyl group-containing analogues for σ1 receptors” (J Med Chem, 2011) are Ki and Ratio Ki values, retold here.

pKi: −log10 of the molar value.

A short description of assay [1]: Displacement of [3H]-DTG from sigma 2 receptor in rat liver membrane homogenates after 2 hrs by liquid scintillation counting. The assay is classed as cell membranes. A general note: In a radioligand displacement assay an active substance lowers the binding of a labelled ligand.
The target in assay [2] is Sigma non-opioid intracellular receptor 1 (Cavia porcellus, UniProt Q60492). Nature of the assay: Displacement of (+)-[3H]pentazocine from sigma 1 receptor in guinea pig brain membrane homogenates after 90 mins by liquid scintillation counting. It is filed as cell membranes.
Sigma non-opioid intracellular receptor 1, sequence (Q60492 whole entry): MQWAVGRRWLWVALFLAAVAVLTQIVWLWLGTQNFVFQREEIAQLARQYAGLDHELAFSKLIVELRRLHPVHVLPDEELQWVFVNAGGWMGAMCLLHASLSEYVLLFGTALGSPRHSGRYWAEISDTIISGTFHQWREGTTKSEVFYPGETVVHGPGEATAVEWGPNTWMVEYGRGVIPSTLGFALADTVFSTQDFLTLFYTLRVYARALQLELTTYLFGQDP
The target of assay [3] is T1, Vesicular acetylcholine transporter (Homo sapiens, UniProt Q16572).
T1 sequence (Q16572 whole entry): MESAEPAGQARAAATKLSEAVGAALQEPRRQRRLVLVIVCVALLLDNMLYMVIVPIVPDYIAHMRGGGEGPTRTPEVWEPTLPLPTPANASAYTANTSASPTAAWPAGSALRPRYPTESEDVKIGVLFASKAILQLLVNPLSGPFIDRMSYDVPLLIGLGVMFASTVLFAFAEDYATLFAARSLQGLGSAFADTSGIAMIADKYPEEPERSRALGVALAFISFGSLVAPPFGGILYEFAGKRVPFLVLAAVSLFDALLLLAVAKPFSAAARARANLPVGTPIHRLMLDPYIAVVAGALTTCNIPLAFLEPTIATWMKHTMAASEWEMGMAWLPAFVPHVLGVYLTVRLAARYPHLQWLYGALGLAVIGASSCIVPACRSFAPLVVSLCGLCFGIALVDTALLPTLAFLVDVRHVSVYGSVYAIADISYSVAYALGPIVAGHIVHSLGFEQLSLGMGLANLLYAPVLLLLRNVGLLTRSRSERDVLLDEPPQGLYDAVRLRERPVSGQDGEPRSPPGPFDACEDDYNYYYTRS
Nature of the assay: Displacement of (-)-[3H]vesamicol from human VAChT expressed in rat PC12 A123.7 cells after 20 hrs. The assay is classed as cell-based, PC-12.

A short description of assay [4]: Selectivity ratio of Ki for sigma 1 receptor in guinea pig brain membrane homogenates to Ki for human VAChT. It is filed as cell membranes.
Assay [5] in a line: Selectivity ratio of Ki for sigma 1 receptor in guinea pig brain membrane homogenates to Ki for sigma 2 receptor in rat liver membrane homogenates. It is filed as cell membranes.

Regarding `O[C@@H]1CCN(Cc2ccc(F)cc2)C[C@H]1N1CCC(c2ccccc2)CC1`, the pKi (in general, −log10 of the Ki, conventionally taken in molar units) in assay [1] was 7.44.

Consider `Cc1ccc(C2CCN([C@@H]3CCCC[C@H]3O)CC2)cc1`, for which the pKi in assay [1] is 7.37; in assay [2], 8.09; in assay [3], 7.64.

In assay [1], `COc1ccc(CCN2CCN(CCCc3ccccc3)CC2)cc1OC` had a pKi of 6.62.

With `O[C@@H]1CCN(Cc2cccc(I)c2)C[C@H]1N1CCC(c2ccccc2)CC1`, the pKi in assay [1] is 6.72; in assay [2], 7.04.

`O=C(c1ccc(F)cc1)C1CCN([C@H]2CCN(C(=O)c3ccc(F)cc3)C[C@@H]2O)CC1` (relative stereo): in assay [1], the pKi was 5.06. The figures for the Ratio Ki in assay [4] and in assay [5] were 1.1 and 2.7, respectively.

In assay [1], `O=C(c1ccc(F)cc1)C1CCN([C@H]2CN(Cc3cccnc3)CC[C@@H]2O)CC1` (relative stereo) gave a pKi of 4.89. Further, the Ratio Ki in assay [4] was 0.2; in assay [5], 11.

Take `COc1ccc(C(=O)C2CCN([C@H]3CN(Cc4ccccc4)CC[C@@H]3O)CC2)cc1` (relative stereo): in assay [1], the pKi was 5.07. The Ratio Ki in assay [4] is 0.17; in assay [5] it was 41.

In assay [1], `COc1ccc(C(=O)C2CCN([C@H]3CN(Cc4cccnc4)CC[C@@H]3O)CC2)cc1` (relative stereo) showed a pKi of 4.77.

As to `O[C@@H]1CCCC[C@H]1N1CCC(c2ccccc2)CC1` [VESAMICOL], the pKi is 6.46 in assay [1] and 7.13 in assay [2].
